Source: patent US9738634B2, “Heterocyclic amide compound and herbicide” (SYNGENTA PARTICIPATIONS AG, priority 2013, dated 2017)

How the values were obtained:
Format in all cases: in vivo
[1] = system: oval-leafed pondweed; assay: Test Example 2: weedkilling efficacy, growth period weed treatment in the submerged state; C: oval-leafed pondweed; conditions: treatment dosage 320 g/ha
In short: (§1)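 Weeds treated at the 1-2 leaf stage by application of diluted emulsion onto floodwater (4 cm depth, alluvial soil) at specified g/ha. Grown in greenhouse at 25 to 30° C; herbicidal effect rated three weeks after treatment.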

[2] = system: barnyard grass; assay: Test Example 1: weedkilling efficacy, preemergent weed treatment in the submerged state; A: barnyard grass; conditions: treatment dosage 320 g/ha
In short: (§2)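 Pre-emergence application onto floodwater (4 cm, alluvial soil) on the day of sowing, dose expressed as g/ha from diluted emulsion formulation. Weeds sown with 2.5-leaf transplanted rice as crop; plants held at 25–30 °C in greenhouse and scored against assessment criteria after 3 weeks.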

[3] = system: directly sown rice; assay: Test Example 3: soil treatment, effect on crop; b: directly sown rice; conditions: soil treatment
In short: (§3)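 Crop and weed responses were judged three weeks after a uniform surface spray of the water-diluted emulsion at the given g/ha rate. Seeds sat beneath about 1.5 cm of sterilized diluvial soil, and boxes stood in a greenhouse at 25 to 30° C.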

[4] = system: transplanted rice; assay: Test Example 1: preemergent weed treatment in the submerged state, effect on crop; a: transplanted rice; conditions: treatment dosage 320 g/ha
In short: as §2

[5] = system: beet; assay: Test Example 3: soil treatment, effect on crop; f: beet; conditions: soil treatment
In short: as §3

[6] = system: rapeseed; assay: Test Example 3: soil treatment, effect on crop; g: rapeseed; conditions: soil treatment
In short: as §3

[7] = system: black-grass; assay: Test Example 3: weedkilling efficacy through soil treatment; H: black-grass; conditions: soil treatment
In short: as §3

[8] = system: Italian ryegrass; assay: Test Example 3: weedkilling efficacy through soil treatment; I: Italian ryegrass; conditions: soil treatment
In short: as §3

[9] = system: crabgrass; assay: Test Example 3: weedkilling efficacy through soil treatment; D: crabgrass; conditions: soil treatment
In short: as §3

[10] = system: corn; assay: Test Example 3: soil treatment, effect on crop; c: corn; conditions: soil treatment
In short: as §3

[11] = system: wheat; assay: Test Example 3: soil treatment, effect on crop; e: wheat; conditions: soil treatment
In short: as §3

[12] = system: fig-leafed goosefoot; assay: Test Example 3: weedkilling efficacy through soil treatment; M: fig-leafed goosefoot; conditions: soil treatment
In short: as §3

[13] = system: chickweed; assay: Test Example 3: weedkilling efficacy through soil treatment; N: chickweed; conditions: soil treatment
In short: as §3

[14] = system: common wind-grass; assay: Test Example 3: weedkilling efficacy through soil treatment; J: common wind-grass; conditions: soil treatment
In short: as §3

[15] = system: oval-leafed pondweed; assay: Test Example 1: weedkilling efficacy, preemergent weed treatment in the submerged state; C: oval-leafed pondweed; conditions: treatment dosage 320 g/ha
In short: as §2

[16] = system: redroot pigweed; assay: Test Example 3: weedkilling efficacy through soil treatment; L: redroot pigweed; conditions: soil treatment
In short: as §3

[17] = system: wild oat; assay: Test Example 3: weedkilling efficacy through soil treatment; G: wild oat; conditions: soil treatment
In short: as §3

[18] = system: green foxtail; assay: Test Example 3: weedkilling efficacy through soil treatment; E: green foxtail; conditions: soil treatment
In short: as §3

[19] = system: catchweed; assay: Test Example 3: weedkilling efficacy through soil treatment; O: catchweed; conditions: soil treatment
In short: as §3

[20] = system: Indian mallow; assay: Test Example 3: weedkilling efficacy through soil treatment; K: Indian mallow; conditions: soil treatment
In short: as §3

[21] = system: bulrush; assay: Test Example 2: weedkilling efficacy, growth period weed treatment in the submerged state; B: bulrush; conditions: treatment dosage 320 g/ha
In short: as §1

[22] = system: barnyard grass; assay: Test Example 3: weedkilling efficacy through soil treatment; F: barnyard grass; conditions: soil treatment
In short: as §3

[23] = system: barnyard grass; assay: Test Example 2: weedkilling efficacy, growth period weed treatment in the submerged state; A: barnyard grass; conditions: treatment dosage 320 g/ha
In short: as §1

[24] = system: birds-eye speedwell; assay: Test Example 3: weedkilling efficacy through soil treatment; p: birds-eye speedwell; conditions: soil treatment
In short: as §3

[25] = system: soybean; assay: Test Example 3: soil treatment, effect on crop; d: soybean; conditions: soil treatment
In short: as §3

[26] = system: bulrush; assay: Test Example 1: weedkilling efficacy, preemergent weed treatment in the submerged state; B: bulrush; conditions: treatment dosage 320 g/ha
In short: as §2

SMILES | C (oval-leafed pondweed) weedkilling efficacy grade [1] | A: barnyard grass, weed kill grade [2] | b: directly sown rice, effect on crop grade ([3]; treatment dosage 320 g/ha) | a: transplanted rice, effect on crop grade [4] | f: beet, effect on crop grade ([5]; treatment dosage 320 g/ha) | g: rapeseed, effect on crop grade ([6]; treatment dosage 320 g/ha) | H: black-grass, weedkilling efficacy grade ([7]; treatment dosage 320 g/ha) | I: Italian ryegrass, weedkilling efficacy grade ([8]; treatment dosage 320 g/ha) | D: crabgrass, weedkilling efficacy grade ([9]; treatment dosage 320 g/ha) | c: corn, effect on crop grade ([10]; treatment dosage 320 g/ha) | e: wheat, effect on crop grade ([11]; treatment dosage 320 g/ha) | M: fig-leafed goosefoot, weedkilling efficacy grade ([12]; treatment dosage 320 g/ha) | N: chickweed, weedkilling efficacy grade ([13]; treatment dosage 320 g/ha) | J: common wind-grass, weedkilling efficacy grade ([14]; treatment dosage 320 g/ha) | C: oval-leafed pondweed, weed kill grade [15] | L: redroot pigweed, weedkilling efficacy grade ([16]; treatment dosage 320 g/ha) | G: wild oat, weedkilling efficacy grade ([17]; treatment dosage 320 g/ha) | E: green foxtail, weedkilling efficacy grade ([18]; treatment dosage 320 g/ha) | O: catchweed, weedkilling efficacy grade ([19]; treatment dosage 320 g/ha) | K: Indian mallow, weedkilling efficacy grade ([20]; treatment dosage 320 g/ha) | other results
CC(C)(C(=O)Nc1cc(C(F)F)ccn1)N1COCN(c2ccccc2)C1=O [A-2-40] | 5 (weed kill ratio 90% or more, (practically complete withering)) | 5 (weed kill ratio 90% or more, (practically complete withering)) | 5 (weed kill ratio 90% or more, (practically complete withering)) | 1 (weed kill ratio 5% or more, less than 20%) | 4 (weed kill ratio 70% or more, less than 90%) | 4 (weed kill ratio 70% or more, less than 90%) | 5 (weed kill ratio 90% or more, (practically complete withering)) | 5 (weed kill ratio 90% or more, (practically complete withering)) | 5 (weed kill ratio 90% or more, (practically complete withering)) | 2 (weed kill ratio 20% or more, less than 40%) | 1 (weed kill ratio 5% or more, less than 20%) | 4 (weed kill ratio 70% or more, less than 90%) | 4 (weed kill ratio 70% or more, less than 90%) | 5 (weed kill ratio 90% or more, (practically complete withering)) | 5 (weed kill ratio 90% or more, (practically complete withering)) | 4 (weed kill ratio 70% or more, less than 90%) | 5 (weed kill ratio 90% or more, (practically complete withering)) | 5 (weed kill ratio 90% or more, (practically complete withering)) | 5 (weed kill ratio 90% or more, (practically complete withering)) | 4 (weed kill ratio 70% or more, less than 90%) | B (bulrush) weedkilling efficacy grade [21]: 5 (weed kill ratio 90% or more, (practically complete withering)); F: barnyard grass, weedkilling efficacy grade ([22]; treatment dosage 320 g/ha): 5 (weed kill ratio 90% or more, (practically complete withering)); A (barnyard grass) weedkilling efficacy grade [23]: 5 (weed kill ratio 90% or more, (practically complete withering)); P: birds-eye speedwell, weedkilling efficacy grade ([24]; treatment dosage 320 g/ha): 5 (weed kill ratio 90% or more, (practically complete withering)); d: soybean, effect on crop grade ([25]; treatment dosage 320 g/ha): 3 (weed kill ratio 40% or more, less than 70%); B: bulrush, weed kill grade [26]: 5 (weed kill ratio 90% or more, (practically complete withering))
CC(C)(C(=O)Nc1cc(Oc2ccccc2)cc(Cl)n1)N1COCN(c2ccccc2)C1=O [A-2-36] | 5 (weed kill ratio 90% or more, (practically complete withering)) | 5 (weed kill ratio 90% or more, (practically complete withering)) | 0 (weed kill ratio 5% or less (practically no effect)) | 2 (weed kill ratio 20% or more, less than 40%) | 2 (weed kill ratio 20% or more, less than 40%) | 1 (weed kill ratio 5% or more, less than 20%) | 5 (weed kill ratio 90% or more, (practically complete withering)) | 5 (weed kill ratio 90% or more, (practically complete withering)) | 5 (weed kill ratio 90% or more, (practically complete withering)) | 0 (weed kill ratio 5% or less (practically no effect)) | 0 (weed kill ratio 5% or less (practically no effect)) | 3 (weed kill ratio 40% or more, less than 70%) | 3 (weed kill ratio 40% or more, less than 70%) | 5 (weed kill ratio 90% or more, (practically complete withering)) | 5 (weed kill ratio 90% or more, (practically complete withering)) | 3 (weed kill ratio 40% or more, less than 70%) | 0 (weed kill ratio 5% or less (practically no effect)) | 5 (weed kill ratio 90% or more, (practically complete withering)) | 0 (weed kill ratio 5% or less (practically no effect)) | 0 (weed kill ratio 5% or less (practically no effect)) | B (bulrush) weedkilling efficacy grade [21]: 3 (weed kill ratio 40% or more, less than 70%); F: barnyard grass, weedkilling efficacy grade ([22]; treatment dosage 320 g/ha): 4 (weed kill ratio 70% or more, less than 90%); A (barnyard grass) weedkilling efficacy grade [23]: 5 (weed kill ratio 90% or more, (practically complete withering)); P: birds-eye speedwell, weedkilling efficacy grade ([24]; treatment dosage 320 g/ha): 4 (weed kill ratio 70% or more, less than 90%); d: soybean, effect on crop grade ([25]; treatment dosage 320 g/ha): 0 (weed kill ratio 5% or less (practically no effect)); B: bulrush, weed kill grade [26]: 5 (weed kill ratio 90% or more, (practically complete withering))
CC(C)(C(=O)Nc1cc(Cl)cc(C2CC2)n1)N1COCN(c2ccccc2)C1=O [A-2-29] | – | – | – | – | – | – | – | – | – | – | – | – | – | – | – | – | – | – | – | – | b: directly sown rice, effect on crop grade ([3]; treatment dosage 230 g/ha): 1 (weed kill ratio 5% or more, less than 20%); f: beet, effect on crop grade ([5]; treatment dosage 230 g/ha): 3 (weed kill ratio 40% or more, less than 70%); g: rapeseed, effect on crop grade ([6]; treatment dosage 230 g/ha): 4 (weed kill ratio 70% or more, less than 90%); H: black-grass, weedkilling efficacy grade ([7]; treatment dosage 230 g/ha): 5 (weed kill ratio 90% or more, (practically complete withering)); I: Italian ryegrass, weedkilling efficacy grade ([8]; treatment dosage 230 g/ha): 5 (weed kill ratio 90% or more, (practically complete withering)); D: crabgrass, weedkilling efficacy grade ([9]; treatment dosage 230 g/ha): 5 (weed kill ratio 90% or more, (practically complete withering)); c: corn, effect on crop grade ([10]; treatment dosage 230 g/ha): 1 (weed kill ratio 5% or more, less than 20%); e: wheat, effect on crop grade ([11]; treatment dosage 230 g/ha): 0 (weed kill ratio 5% or less (practically no effect)); M: fig-leafed goosefoot, weedkilling efficacy grade ([12]; treatment dosage 230 g/ha): 3 (weed kill ratio 40% or more, less than 70%); N: chickweed, weedkilling efficacy grade ([13]; treatment dosage 230 g/ha): 4 (weed kill ratio 70% or more, less than 90%); J: common wind-grass, weedkilling efficacy grade ([14]; treatment dosage 230 g/ha): 5 (weed kill ratio 90% or more, (practically complete withering)); L: redroot pigweed, weedkilling efficacy grade ([16]; treatment dosage 230 g/ha): 2 (weed kill ratio 20% or more, less than 40%); G: wild oat, weedkilling efficacy grade ([17]; treatment dosage 230 g/ha): 3 (weed kill ratio 40% or more, less than 70%); E: green foxtail, weedkilling efficacy grade ([18]; treatment dosage 230 g/ha): 5 (weed kill ratio 90% or more, (practically complete withering)); O: catchweed, weedkilling efficacy grade ([19]; treatment dosage 230 g/ha): 3 (weed kill ratio 40% or more, less than 70%); K: Indian mallow, weedkilling efficacy grade ([20]; treatment dosage 230 g/ha): 3 (weed kill ratio 40% or more, less than 70%); F: barnyard grass, weedkilling efficacy grade ([22]; treatment dosage 230 g/ha): 5 (weed kill ratio 90% or more, (practically complete withering)); P: birds-eye speedwell, weedkilling efficacy grade ([24]; treatment dosage 230 g/ha): 5 (weed kill ratio 90% or more, (practically complete withering)); d: soybean, effect on crop grade ([25]; treatment dosage 230 g/ha): 0 (weed kill ratio 5% or less (practically no effect))
